Test results: PMC8209673 (Cell reports, 2021)
Where two headings read alike, the source gives them in different places.

Assays:
[1] = tested on: SOD1(A4V) ALS motor neurons; format: cell-based, human
[2] = tested on: SOD1(A4V) motor neurons; experiment: Multiple electrode array; format: cell-based, human; settings: for SOD1(A4V) motor neuron excitability: DRD2/3 agonists, MEA (Figure 4C)
[3] = tested on: SOD1(A4V) motor neurons; experiment: Patch clamp current-clamp recording of spontaneous firing; format: cell-based, human
[4] = biological target: DRD2; settings: ref McCall et al., 2005; cited from earlier work
[5] = biological target: DRD3; settings: cited from earlier work
[6] = tested on: human motor neurons carrying SOD1, C9ORF72, and FUS mutations; settings: ref Wainger et al., 2014; cited from earlier work
[7] = tested on: lower motor neuron hyperexcitability; settings: two clinical trials; ref Kovalchuk et al., 2018; Wainger et al., 2021; cited from earlier work
[8] = tested on: patients with ALS; settings: small-scale clinical trial; ref Nagata et al., 2016; cited from earlier work
[9] = tested on: differentiated human ALS motor neurons; experiment: Fura-2 calcium response imaging; format: cell-based; settings: fura-2 imaging
[10] = calcium wave count normalized to the DMSO control (100.00)
[11] = activity normalized to the DMSO control (100.00)

Row | Structure (SMILES) | GCaMP6 (%) spontaneous motor neuron activity [1, 10] [%] | MEA (%) spontaneous motor neuron activity [2] [%] | other results
1 | Cc1cc(C)c(NC(=O)C2CC3CCC2C3)c(C)c1 (stereo not shown) [ML213] | 0.00 ± 0.0 | 0.38 ± 0.4 | –
2 | COc1ccc(Cl)cc1[C@]1(F)C(=O)Nc2cc(C(F)(F)F)ccc21 [Maxipost (BMS-204352)] | 36.67 ± 39.8 | 22.32 ± 1.1 | –
3 | CN[C@@H]1Cc2cccc3[nH]c(=O)n(c23)C1 [sumanirole] | – | – | SOD1(A4V) motor neuron excitability [2]: decreased SOD1(A4V) motor neuron excitability; membrane potential change ([3]; patch clamp, accompanying the decrease in firing): slight hyperpolarization; firing frequency ([3]; patch clamp, sumanirole 10 μM perfusion, control neurons): decrease in firing frequency; reduced excitability in DRD2 knockdown motor neurons ([3]; shRNA-mediated DRD2 knockdown, sumanirole 10 μM): insensitive; Ki [4]: 2 nM; Ki [5]: 1940 nM
4 | CCOC(=O)Nc1ccc(NCc2ccc(F)cc2)cc1N [retigabine] | – | – | firing of human motor neurons [6]: block firing; lower motor neuron hyperexcitability in patients with ALS [7]: decreased lower motor neuron hyperexcitability
5 | CCOC(=O)Nc1ccc(NCc2ccc(F)cc2)nc1N [flupirtine] | – | – | firing of human motor neurons [6]: block firing
6 | CC(C)C[C@H]1C(=O)N2CCC[C@H]2[C@]2(O)O[C@](NC(=O)[C@@H]3C=C4c5cccc6[nH]c(Br)c(c56)C[C@H]4N(C)C3)(C(C)C)C(=O)N12 [bromocriptine] | – | – | SOD1(A4V) motor neuron excitability [2]: decreased SOD1(A4V) motor neuron excitability; motor function in patients with ALS [8]: sustained motor function
7 | Cc1cc(NC2CCCCC2)nc(-n2nc(C)cc2C)n1 [CyPPA (NS6277)] | 80.00 ± 27.4 | 12.72 ± 5.8 | –
8 | CN(C)C(=O)C(CCN1CCC(O)(c2ccc(Cl)cc2)CC1)(c1ccccc1)c1ccccc1 [Loperamide] | – | 0.02 ± 0.0 | GCaMP6 (%) spontaneous motor neuron activity [1]: 0.00± 0.0%
9 | CCn1c(=O)[nH]c2ccccc21 [1-Ebio (SB-423901)] | 103.33 ± 21.7 | 122.81 ± 27.8 | –
10 | Cc1o[nH]c(=O)c1C[C@H](N)C(=O)O [AMPA] | – | – | calcium influx [9]: elicits a large calcium influx
11 | O=C1NC(=O)C(c2ccccc2)(c2ccccc2)N1 [Phenytoin] | 116.67 ± 56.5 | – | MEA (%) spontaneous motor neuron activity [2, 11]: 103.78 ± 41.1%
12 | COCC(=O)O[C@]1(CCN(C)CCCc2nc3ccccc3[nH]2)CCc2cc(F)ccc2[C@@H]1C(C)C [Mibefradil] | 0.00 ± 0.0 | 0.02± 0.0 | –
13 | O=C(Nc1cnc(Cl)nc1)c1ccc(F)c(F)c1 [ICA 069673] | 13.33 ± 13.9 | 0.07 ± 0.0 | –
14 | O=C(Nc1ccc(Cl)nc1)c1ccc(F)c(F)c1 [ICA-27243] | 0.00 ± 0.0 | – | MEA (%) spontaneous motor neuron activity [2, 11]: 0.20 ± 0.1%
15 | Nc1nc2c(ccc3ccccc32)s1 [SKA 31] | 123.33 ± 60.8 | 106.67 ± 44.4 | –
16 | O=C1Nc2c(ccc(Cl)c2Cl)C1=NO [NS309] | 110.00 ± 38.4 | 86.56 ± 14.4 | –
